Like-named read-outs stand apart in the source and are kept apart here.
Legend:
Format in all cases: biochemical
[1] = target: T1, BChE (Equus caballus, UniProt P81908); test: BChE activity assay (Ellman method)
T1 construct: BChE from equine serum (C4290: Sigma-Aldrich); purchased Sigma-Aldrich C4290; host or cells: equine serum
From the text: (§1) In this study, hCA I and II were obtained from fresh human erythrocytes using affinity chromatography as previously described in the literature.[36],[37] AChE from Electrophorus electricus (electric eel) (C3389: Sigma-Aldrich), BChE from equine serum (C4290: Sigma-Aldrich), and the other chemicals (4-nitrophenyl acetate (N8130: Sigma-Aldrich), 5,5′-dithiobis(2-nitrobenzoic acid) (D218200: Sigma-Aldrich), acetylthiocholine iodide (A5771: Sigma-Aldrich), butyrylthiocholine iodide (B3253: Sigma-Aldrich)) were purchased from local representatives of well-known commercial companies. On the other hand, the absorbance rates of each compound were determined by a microplate spectrophotometer (Multiskan Go, Thermo Scientific).
(§2) The evaluation of the inhibitory characteristics of all synthesized compounds against AChE and BChE was conducted using the widely recognized Ellman method,[41] as described in pertinent literature sources.[2],[14],[18]

[2] = target: T2, hCA I (Homo sapiens, UniProt P00915); test: biochemical; details: for IC50: mean from at least three determinations
T2 construct: from tissue; host or cells: fresh human erythrocytes
From the text: as §1
(§3) In this study, we conducted hCA I and II activity assays using the Verpoorte method, as outlined in previous literature.[38] The inhibitory activities of all of the newly synthesized compounds were thoroughly tested. The inhibitory activity of each molecule was examined in triplicate at each concentration. Different concentrations were employed for all inhibitors tested in this study, respectively. The baseline activity in the control cuvette, without any inhibitory agent, was established as 100%.

[3] = target: T3, hCA II (Homo sapiens, UniProt P00918); test: hCA II activity assay (Verpoorte esterase method); details: mean from at least three determinations
T3 construct: from tissue; host or cells: fresh human erythrocytes
From the text: as §1
as §3, with “100%. AZA was used as a positive control compound.” for “100%.”

[4] = target: T4, AChE (Electrophorus electricus, UniProt O42275); test: AChE activity assay (Ellman method); details: for IC50: mean from at least three determinations
T4 construct: purchased Sigma-Aldrich C3389
From the text: as §1, §2

[5] = mean from at least three determinations, read-out: IC50 BChE
[6] = ratio of IC50 values vs neostigmine

T4 sequence (O42275 24-633): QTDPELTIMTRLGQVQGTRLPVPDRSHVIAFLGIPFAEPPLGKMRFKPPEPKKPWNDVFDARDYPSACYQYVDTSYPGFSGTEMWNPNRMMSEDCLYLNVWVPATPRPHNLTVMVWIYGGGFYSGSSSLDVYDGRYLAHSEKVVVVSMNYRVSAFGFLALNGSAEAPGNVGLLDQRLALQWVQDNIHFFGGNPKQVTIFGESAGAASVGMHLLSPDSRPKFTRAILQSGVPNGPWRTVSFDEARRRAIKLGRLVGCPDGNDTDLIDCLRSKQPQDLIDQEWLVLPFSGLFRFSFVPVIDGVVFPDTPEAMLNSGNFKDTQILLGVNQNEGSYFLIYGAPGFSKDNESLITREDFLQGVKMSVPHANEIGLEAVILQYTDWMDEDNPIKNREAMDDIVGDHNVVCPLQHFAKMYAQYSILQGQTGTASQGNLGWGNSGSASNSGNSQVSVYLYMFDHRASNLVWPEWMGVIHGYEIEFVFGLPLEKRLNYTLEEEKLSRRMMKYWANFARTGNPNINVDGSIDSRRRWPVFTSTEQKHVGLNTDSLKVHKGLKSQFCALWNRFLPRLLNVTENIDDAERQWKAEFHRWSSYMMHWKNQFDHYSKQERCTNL
T1 sequence (P81908 whole entry): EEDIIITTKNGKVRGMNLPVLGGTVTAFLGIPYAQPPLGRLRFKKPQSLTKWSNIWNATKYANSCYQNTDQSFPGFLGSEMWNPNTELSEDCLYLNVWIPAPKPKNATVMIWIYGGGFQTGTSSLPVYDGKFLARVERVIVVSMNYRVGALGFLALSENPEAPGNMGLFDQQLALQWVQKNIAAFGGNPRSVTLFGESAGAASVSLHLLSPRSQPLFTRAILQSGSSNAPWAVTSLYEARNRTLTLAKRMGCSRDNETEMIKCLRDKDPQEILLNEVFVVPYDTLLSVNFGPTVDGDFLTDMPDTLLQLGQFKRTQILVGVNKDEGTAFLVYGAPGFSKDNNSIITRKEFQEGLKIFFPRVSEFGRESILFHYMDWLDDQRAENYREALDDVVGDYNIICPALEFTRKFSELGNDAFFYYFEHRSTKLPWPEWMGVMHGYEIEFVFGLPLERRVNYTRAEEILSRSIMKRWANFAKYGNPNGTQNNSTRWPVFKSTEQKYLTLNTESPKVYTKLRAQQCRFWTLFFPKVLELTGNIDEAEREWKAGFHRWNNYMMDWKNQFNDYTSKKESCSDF
T2 sequence (P00915 whole entry): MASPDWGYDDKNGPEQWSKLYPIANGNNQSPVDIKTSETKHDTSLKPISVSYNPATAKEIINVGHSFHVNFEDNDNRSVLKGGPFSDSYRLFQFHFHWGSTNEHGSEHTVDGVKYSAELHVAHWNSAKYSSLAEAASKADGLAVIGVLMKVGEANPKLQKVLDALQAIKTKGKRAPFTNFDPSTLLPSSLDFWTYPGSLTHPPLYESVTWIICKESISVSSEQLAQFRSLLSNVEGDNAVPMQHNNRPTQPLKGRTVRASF

Compound | IC50 [1, 5] | IC50 [2] | IC50 [3] | IC50 [4] | IC50 [1] | inhibition of hCA I relative to AZA ([2]; ratio of IC50 values vs AZA) | inhibition of BChE relative to neostigmine [1, 6] | inhibition of BChE relative to neostigmine ([1]; ratio vs neostigmine, Conclusions text) | inhibition of AChE relative to neostigmine [4, 6] | inhibition of AChE relative to rivastigmine ([4]; ratio of IC50 values vs rivastigmine)
COc1cc(C=NNC(=O)c2cccnc2)ccc1OC(=O)c1ccc(N(C)C)cc1 [compound 11, 2-Methoxy-4-((2-nicotinoylhydrazono)methyl)phenyl 4-(Dimethylamino)benzoate] | 28.6 ± 0.5 nM | 32.2 ± 0.72 nM | 11.6 ± 0.22 nM | 28.6 ± 0.52 nM |  |  |  |  |  | 
CN(C)c1ccc(C(=O)Oc2ccccc2C=O)cc1 [compound 1, 2-Formylphenyl 4-(Dimethylamino)benzoate] | 43.5 ± 0.75 nM | 27.5 ± 0.51 nM | 13.7 ± 0.27 nM | 51.1 ± 0.88 nM |  |  |  |  |  | 
COc1cccc(C=NNC(=O)c2cccnc2)c1OC(=O)c1ccc(N(C)C)cc1 [compound 9, 2-Methoxy-6-((2-nicotinoylhydrazono)methyl)phenyl 4-(Dimethylamino)benzoate] | 39.6 ± 0.71 nM | 35.7 ± 0.74 nM | 12.5 ± 0.21 nM | 43.2 ± 0.81 nM |  |  |  |  |  | 
CN(C)c1ccc(C(=O)Oc2ccc3ccccc3c2C=O)cc1 [compound 6, 1-Formylnaphthalen-2-yl 4-(Dimethylamino)benzoate] | 25.2 ± 0.42 nM | 45.1 ± 0.82 nM | 24.7 ± 0.43 nM | 28.2 ± 0.52 nM |  |  |  |  |  | 
COc1ccc(C=NNC(=O)c2cccnc2)cc1OC(=O)c1ccc(N(C)C)cc1 [compound 10, 2-Methoxy-5-((2-nicotinoylhydrazono)methyl)phenyl 4-(Dimethylamino)benzoate] | 29.7 ± 0.54 nM | 32.5 ± 0.73 nM | 11.8 ± 0.22 nM | 29.6 ± 0.53 nM |  |  |  |  |  | 
COc1cccc(C=O)c1OC(=O)c1ccc(N(C)C)cc1 [compound 3, 2-Formyl-6-methoxyphenyl 4-(Dimethylamino)benzoate] | 51.3 ± 0.89 nM | 39.6 ± 0.72 nM | 16.1 ± 0.33 nM | 59.5 ± 0.96 nM |  |  |  |  |  | 
CN(C)c1ccc(C(=O)Oc2ccccc2C=NNC(=O)c2cccnc2)cc1 [compound 7, 2-((2-Nicotinoylhydrazono)methyl)phenyl 4-(Dimethylamino)benzoate] | 45.3 ± 0.82 nM | 29.1 ± 0.53 nM | 8.03 ± 0.14 nM | 48.6 ± 0.79 nM |  |  |  |  |  | 
COc1cc(C=O)ccc1OC(=O)c1ccc(N(C)C)cc1 [compound 5, 4-Formyl-2-methoxyphenyl 4-(Dimethylamino)benzoate] | 54.7 ± 0.91 nM | 39.1 ± 0.71 nM | 20.4 ± 0.35 nM | 61.4 ± 1.12 nM |  |  |  |  |  | 
COc1ccc(C=O)cc1OC(=O)c1ccc(N(C)C)cc1 [compound 4, 5-Formyl-2-methoxyphenyl 4-(Dimethylamino)benzoate] | 53.1 ± 0.91 nM | 38.1 ± 0.65 nM | 15.4 ± 0.32 nM | 60.2 ± 1.02 nM |  |  |  |  |  | 
CN(C)C(=O)Oc1cccc([N+](C)(C)C)c1 [neostigmine, reference compound] |  |  |  |  | 84 ± 1.07 nM |  |  |  |  | 
CN(C)c1ccc(C(=O)Oc2ccc(C=NNC(=O)c3cccnc3)cc2)cc1 [compound 8, 4-((2-Nicotinoylhydrazono)methyl)phenyl 4-(Dimethylamino)benzoate] | 43.4 ± 0.83 nM | 21.4 ± 0.39 nM | 7.12 ± 0.12 nM | 46.3 ± 0.75 nM |  | 13 fold |  |  |  | 
CN(C)c1ccc(C(=O)Oc2ccc(C=O)cc2)cc1 [compound 2, 4-Formylphenyl 4-(Dimethylamino)benzoate] | 41.5 ± 0.68 nM | 25.6 ± 0.47 nM | 12.2 ± 0.21 nM | 48.5 ± 0.81 nM |  |  |  |  |  | 
CN(C)c1ccc(C(=O)Oc2ccc3ccccc3c2C=NNC(=O)c2cccnc2)cc1 [compound 12, 1-((2-Nicotinoylhydrazono)methyl)naphthalen-2-yl 4-(Dimethylamino)benzoate] | 18.4 ± 0.36 nM | 42.7 ± 0.81 nM | 23.5 ± 0.41 nM | 21.4 ± 0.38 nM |  |  | approximately 5 fold | approximately 4 times | more than 6 fold | approximately 3 fold

— PMC11079868, “Synthesis of Novel Hydrazide–Hydrazone Compounds and In Vitro and In Silico Investigation of Their Biological Activities against AChE, BChE, and hCA I and II” (ACS Omega, 2024)
